Experimental data from PubChem BioAssay (NCI).
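Growth conditions: 96-well plates. Treatment: test compound, 48 hours, 5 concentrations. Analysis: linear interpolation between bracketing concentrations; unreached endpoints set to highest concentration. At the GI50, growth is halved. TGI: concentration producing complete growth inhibition.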

Experiments:
Test in all cases: NCI tumour cell line growth inhibition, 48 h; in the data active = GI50 below about 0.43 µM; inactive = the rest
[1] = test system: 786-0 renal
[2] = test system: A498 renal
[3] = test system: A549 NSCLC
[4] = test system: ACHN renal
[5] = test system: BT-549 breast
[6] = test system: CAKI-1 renal
[7] = test system: CCRF-CEM leukemia
[8] = test system: COLO 205 colon
[9] = test system: DU-145 prostate
[10] = test system: EKVX NSCLC
[11] = test system: HCC-2998 colon
[12] = test system: HCT-116 colon
[13] = test system: HCT-15 colon
[14] = test system: HL-60(TB) leukemia
[15] = test system: HOP-62 NSCLC
[16] = test system: HOP-92 NSCLC
[17] = test system: HS 578T breast
[18] = test system: HT29 colon
[19] = test system: IGROV1 ovarian
[20] = test system: K-562 leukemia
[21] = test system: KM12 colon
[22] = test system: LOX IMVI melanoma
[23] = test system: M14 melanoma
[24] = test system: MALME-3M melanoma
[25] = test system: MCF7 breast
[26] = test system: MDA-MB-435
[27] = test system: MOLT-4 leukemia
[28] = test system: NCI-H226 lung

COc1ccccc1N1CCN(C2=NN=C(c3cccc(Cl)c3)c3ccccc3C2)CC1
inactive: GI50 [1] 542 nM | GI50 [4] 554 nM | GI50 [10] 556 nM | GI50 [15] 508 nM | GI50 [16] 1000 nM | GI50 [19] 474 nM | GI50 [24] 630 nM | GI50 [28] 1160 nM
2270 nM: TGI [11]
> 22200 nM: TGI [16]
2780 nM: TGI [2]
> 36600 nM: TGI [12]
> 100000 nM: TGI [3] | TGI [4] | TGI [7] | TGI [10] | TGI [19] | TGI [20] | TGI [21] | TGI [22] | TGI [24] | TGI [27]
> 65800 nM: TGI [15]
1650 nM: TGI [8]
920 nM: TGI [14]
active: GI50 [2] 350 nM | GI50 [3] 425 nM | GI50 [5] 373 nM | GI50 [6] 410 nM | GI50 [7] 333 nM | GI50 [8] 337 nM | GI50 [9] 367 nM | GI50 [11] 324 nM | GI50 [12] 337 nM | GI50 [13] 343 nM | GI50 [14] 285 nM | GI50 [17] 332 nM | GI50 [18] 337 nM | GI50 [20] 336 nM | GI50 [21] 380 nM | GI50 [22] 418 nM | GI50 [23] 316 nM | GI50 [25] 351 nM | GI50 [26] 206 nM | GI50 [27] 356 nM
> 30500 nM: TGI [5]
> 34200 nM: TGI [13]
13200 nM: TGI [1]
497 nM: TGI [26]
2370 nM: TGI [9]
> 38000 nM: TGI [25]
13500 nM: TGI [6]
